This is an account of results in patent publication US20250049709A1, “ZIPRASIDONE FORMULATIONS” (BELOTECA, INC., priority 2021, published 2025).

The conditions of data set [1]: cited from earlier work.
Data set [2] is described as follows: pH value of 1% w/v aqueous ziprasidone suspension. It counts as physicochemical. As to conditions: 1% w/v aqueous ziprasidone suspension at 25° C. The protocol: This pH value corresponds to a pH value of ziprasidone in water determined on a 1% w/v aqueous ziprasidone suspension at 25° C.

Values after ≈ are worked out from the molar mass of the structure shown. Where a name gives a salt, the structure may show the parent alone. Read-outs that look alike come from different tables or passages of the source.

As for `O=C1Cc2cc(CCN3CCN(c4nsc5ccccc45)CC3)c(Cl)cc2N1` [ziprasidone hydrochloride], the solubility in water in data set [1] is 7.18 µg/mL.
Regarding `O=C1Cc2cc(CCN3CCN(c4nsc5ccccc45)CC3)c(Cl)cc2N1` [ziprasidone], the “pH value of ziprasidone in water” value in data set [2] was ~3.2. For the same compound, the solubility in water in data set [1] (25° C.) is 2130 µg/mL (≈ 5.16 mM).
Regarding ziprasidone mesylate trihydrate, the solubility in water in data set [1] is 13 µg/mL.
